Columns and labels:
[1] = biological target: T1, RNA-dependent DNA polymerase activity of HIV reverse transcriptase (Human immunodeficiency virus type 1 group M subtype B, UniProt P04585); experiment: RNA-dependent DNA polymerase activity assay of HIV reverse transcriptase; type: biochemical, HIV-1; settings: 10 μM inhibitor concentration, activity with analog / without analog x 100; for remaining activity at 10 µM: read-out: Residual activity (%) Polymerase
T1 construct: made in house
Method: In separate, representative assays, mappicine analogs were tested for their ability to inhibit the RNA-dependent DNA polymerase activity of HIV reverse transcriptase and for their ability to inhibit the RNase H activity of HIV reverse transcriptase. The assay for RNA-dependent DNA polymerase activity is discussed in Borkow, G. et al., “Inhibition of the Ribonuclease H and DNA Polymerase Activities of HIV-1 Reverse Transcriptase by N-(4-tert-Butylbenzoyl)-2-hydroxy-1-naphthaldehyde Hydrazone,” Biochemistry 1997, 36, 3179-3185, a copy of which is attached hereto, and the disclosure of which is incorporated herein by reference. Assays were carried out in the absence and in the presence of mappicine analogs (10 μM final concentration). The results are reported as % residual activity, which is the RNA-dependent DNA polymerase activity of the enzyme in the presence of the mappicine analog divided by the RNA-dependent activity of the enzyme in the absence of the mappicine analog, multiplied by 100.

[2] = biological target: RNase H activity of HIV reverse transcriptase (Human immunodeficiency virus type 1 group M subtype B, UniProt P04585); experiment: Fluorescence (FRET)-based RNase H activity assay of HIV reverse transcriptase; type: biochemical, HIV-1; parameters: final concentration of 2.5 nM of the p51/p66 RT heterodimer in the assay; made in house; settings: 10 μM inhibitor concentration, activity with analog / without analog x 100; for remaining activity at 10 µM: read-out: Residual activity (%) RNase H
Method: Recently, a fluorescence-based assay to perform preliminary screens in search of HIV RNase H inhibitors has been developed. The assay, which is carried out in 96-well microplates and is adaptable to robotics, is the first high-throughput screen for RNase H and is described in further detail in the Experimental section. HIV-1 RT and human RNase H were cloned, and thus comparative analysis of inhibitor action could be conducted simultaneously.
The assay for RNase H activity of HIV reverse transcriptase was the fluorescence-based assay described in detail in the Experimental section and discussed in U.S. Provisional Patent Application Serial No. 60/318,359. Assays were carried out in the absence and in the presence of mappicine analogs (10 μM final concentration). The results are reported as % residual activity, which is the RNase H activity of the enzyme in the presence of the mappicine analog divided by the RNase H activity of the enzyme in the absence of the mappicine analog, multiplied by 100. Alternatively, the results are reported as % inhibition, which is calculated as the ratio of the RNase H activity of the enzyme in the presence of the mappicine analog to the enzyme activity in the absence of the mappicine analog, multiplied by 100, and then subtracting this number from 100.
Assay for Ribonuclease H Activity Based on Fluorescence Resonance Energy Transfer (FRET)
Preparation of the Fluorophore-RNA/Quencher-DNA Hybrid Duplex Substrate.
The RNA/DNA hybrid duplex substrate for use in the assay comprises an RNA oligonucleotide of sequence 5′-GAU CUG AGC CUG GGA GCU-3′, modified at the 3′-end with Aminolink-2 and derivatized with fluorescein isothiocyanate, to provide a modified RNA oligonucleotide of the sequence 5′-GAU CUG AGC CUG GGA GCU-fluorescein-3′, annealed to a complementary DNA oligonucleotide of the sequence 5′-AGC TCC CAG GCT CAG ATC-3′ modified at the 5′-end with Aminolink-2 and derivatized with the FRET acceptor DABCYL succinimidyl ester, to provide a modified DNA oligonucleotide of the sequence 5′-DABCYL-AGC TCC CAG GCT CAG ATC-3′.
To prepare the 3′-fluorescein-RNA/5′-DABCYL-DNA hybrid duplex substrate, a known amount of 3′-fluorescein-RNA was dissolved in 20 mM Tris buffer (pH 8.0, 37° C.) to provide a final concentration of 5 μM. Two equivalents of the 5′-DABCYL-DNA oligonucleotide were added, and the mixture was heated to 90° C. for 5 min and cooled slowly to room temperature to allow duplex formation. The positioning of the fluorescein donor at the 3′-end of the RNA oligonucleotide and the DABCYL acceptor at the 5′-end of the DNA oligonucleotide provides a very close proximity of the donor and acceptor that results in a very intense quenching of the fluorescein emission in the intact RNA/DNA hybrid duplex substrate due to the spectral overlap of the fluorescence emission of fluorescein with the absorption spectrum of DABCYL. In addition, DABCYL is non-fluorescent, and thus cannot contribute any light emission. Both of these factors result in a very low background and provide a high signal-to-noise in the assay measurements. The ratio of the donor fluorescence in the absence and in the presence of its quencher is approximately fifteen-fold.
Microplate Assay Protocol for the Measurement of RNase H Activity Using the RNA/DNA Hybrid Duplex Substrate.
Reaction assay mixtures contained 5 μl of a stock solution of 2.5 μM RNA/DNA hybrid duplex substrate added to 85 μl of assay buffer (50 mM Tris, pH 8.0, 37° C., containing 60 mM KCl and 2.5 mM MgCl2), prepared in the wells of a 96-well fluorescence microtiter plate, and warmed to 37° C. using the temperature control of the SpectraMax Gemini XS microplate spectrofluorometer (Molecular Devices). Reactions were started by the addition of 5 μl of a solution of recombinant HIV-1 reverse transcriptase (usually providing a final concentration of 2.5 nM of the p51/p66 RT heterodimer in the assay), and mixing using the automatic mixing function of the microplate spectrofluorometer. […]

SMILES | Residual activity (%) Polymerase [1] | Residual activity (%) RNase H [2] | remaining activity at 10 µM [1] | remaining activity at 10 µM [2]
CCCCCCc1c2c(nc3ccccc13)-c1cc(C(=O)Cc3ccccc3)c(C)c(=O)n1C2 [8Aεκ] | 59% | 92% | – | –
Cc1ccc2nc3c(c([Si](C)(C)C(C)(C)C)c2c1)Cn1c-3cc(C(O)CCC2CCCCC2)c(C)c1=O (racemic) [4Cδ] | 61% | 109% | – | –
Cc1c(C(O)CCC2CCCCC2)cc2n(c1=O)Cc1c-2nc2ccccc2c1[Si](C)(C)C (racemic) [5Aδ] | 83% | 78% | – | –
Cc1ccc2nc3c(c([Si](C)(C)C(C)(C)C)c2c1)Cn1c-3cc(C(O)C(C)(C)C)c(C)c1=O (centres unmarked) [4Cβ] | 67% | 94% | – | –
CCC(=O)c1cc2n(c(=O)c1C)Cc1c-2nc2ccc(OC)cc2c1-c1ccccc1 [3Dακ] | 76% | 104% | – | –
CCC(O)c1cc2n(c(=O)c1C)Cc1c-2nc2ccc(C)cc2c1[Si](C)(C)C(C)(C)C (centres unmarked) [4Cα] | 94% | 91% | – | –
Cc1c(C(O)Cc2ccccc2)cc2n(c1=O)Cc1c-2nc2ccccc2c1-c1ccccc1 (centres unmarked) [3Aε] | 34% | 99% | – | –
Cc1c(C(=O)C(C)(C)C)cc2n(c1=O)Cc1c-2nc2ccccc2c1[Si](C)(C)C(C)(C)C [4Aβκ] | 79% | 70% | – | –
CCCCCCc1c2c(nc3ccccc13)-c1cc(C(=O)CC)c(C)c(=O)n1C2 [8Aακ] | 53% | 77% | – | –
CCC(=O)c1cc2n(c(=O)c1C)Cc1c-2nc2ccccc2c1[Si](C)(C)C(C)(C)C [4Aακ] | 43% | 76% | – | –
CCC(O)c1cc2n(c(=O)c1C)Cc1c-2nc2ccccc2c1-c1ccccc1 (racemic) [3Aα] | 90% | 97% | – | –
CCC(O)c1cc2n(c(=O)c1C)Cc1c-2nc2ccc(N)cc2c1[Si](C)(C)C (centres unmarked) [AG 3M, 2-Amino-7-(1-hydroxypropyl)-8-methyl-12-trimethylsilanyl-11H-indolizino[1,2-b]quinolin-9-one] | – | – | 123% | 63%
CCCCCCc1c2c(nc3ccc(OC)cc13)-c1cc(C(O)CC)c(C)c(=O)n1C2 (racemic) [8Dα] | 85% | 66% | – | –
Cc1c(C(=O)C(C)(C)C)cc2n(c1=O)Cc1c-2nc2ccccc2c1-c1ccccc1 [3Aβκ] | 64% | 94% | – | –
CCC(=O)c1cc2n(c(=O)c1C)Cc1c-2nc2ccc(C)cc2c1[Si](C)(C)C(C)(C)C [4Cακ] | 52% | 90% | – | –
COc1ccc2nc3c(c([Si](C)(C)C)c2c1)Cn1c-3cc(C(O)C(C)(C)C)c(C)c1=O (centres unmarked) [5Dβ] | 76% | 102% | – | –
CCC(O)c1cc2n(c(=O)c1C)Cc1c-2nc2ccc(C)cc2c1[Si](C)(C)C (centres unmarked) [5Cα] | 68% | 62% | – | –

SMILES | Residual activity (%) Polymerase [1] | Residual activity (%) RNase H [2] | remaining activity at 10 µM [1] | remaining activity at 10 µM [2]
Cc1ccc2nc3c(c(-c4ccccc4)c2c1)Cn1c-3cc(C(O)C(C)(C)C)c(C)c1=O (racemic) [3Cβ] | 70% | 84% | – | –
COc1ccc2nc3c(c([Si](C)(C)C(C)(C)C)c2c1)Cn1c-3cc(C(O)C(C)(C)C)c(C)c1=O (racemic) [4Dβ] | 47% | 91% | – | –
CCCCCCc1c2c(nc3ccc(F)cc13)-c1cc(C(O)CC)c(C)c(=O)n1C2 (centres unmarked) [8Bα] | 57% | 80% | – | –
COc1ccc2nc3c(c([Si](C)(C)C)c2c1)Cn1c-3cc(C(=O)C(C)(C)C)c(C)c1=O [5Dβκ] | 64% | 86% | – | –
Cc1ccc2nc3c(c([Si](C)(C)C)c2c1)Cn1c-3cc(C(O)C(C)(C)C)c(C)c1=O (racemic) [5Cβ] | 72% | 80% | – | –
CCC(O)c1cc2n(c(=O)c1C)Cc1c-2nc2ccc(F)cc2c1[Si](C)(C)C(C)(C)C (racemic) [4Bα] | 98% | 108% | – | –
Cc1c(C(O)C(C)(C)C)cc2n(c1=O)Cc1c-2nc2ccc(F)cc2c1[Si](C)(C)C (racemic) [5Bβ] | 74% | 102% | – | –
Cc1c(C(O)C(C)(C)C)cc2n(c1=O)Cc1c-2nc2ccccc2c1-c1ccccc1 (racemic) [3Aβ] | 54% | 95% | – | –
Cc1c(C(O)C(C)(C)C)cc2n(c1=O)Cc1c-2nc2ccc(F)cc2c1[Si](C)(C)C(C)(C)C (racemic) [4Bβ] | 49% | 113% | – | –
CCc1c2c(nc3ccc(NC(=O)OC(C)(C)C)cc13)-c1cc(C(O)CC)c(C)c(=O)n1C2 (centres unmarked) [AG 5M, 2-tert-Butyloxycarbonylamino-12-ethyl-7-(1-hydroxypropyl)-8-methyl-11H-indolizino[1,2-b]quinolin-9-one] | – | – | 87% | 68%
Cc1ccc2nc3c(c(-c4ccccc4)c2c1)Cn1c-3cc(C(=O)C(C)(C)C)c(C)c1=O [3Cβκ] | 63% | 96% | – | –
CCCCCCc1c2c(nc3ccccc13)-c1cc(C(=O)C(C)(C)C)c(C)c(=O)n1C2 [8Aβκ] | 76% | 96% | – | –
Cc1c(C(O)C(C)(C)C)cc2n(c1=O)Cc1c-2nc2ccccc2c1[Si](C)(C)C(C)(C)C (racemic) [4Aβ] | 71% | 101% | – | –
Cc1c(C(=O)CCC2CCCCC2)cc2n(c1=O)Cc1c-2nc2ccccc2c1[Si](C)(C)C(C)(C)C [4Aδκ] | 39% | 102% | – | –
CCCCCCc1c2c(nc3ccc(F)cc13)-c1cc(C(O)Cc3ccccc3)c(C)c(=O)n1C2 (racemic) [8Bε] | 92% | 84% | – | –
CCCCCCc1c2c(nc3ccc(C)cc13)-c1cc(C(O)C(C)(C)C)c(C)c(=O)n1C2 (racemic) [8Cβ] | 111% | 93% | – | –
COc1ccc2nc3c(c([Si](C)(C)C)c2c1)Cn1c-3cc(C(O)Cc2ccccc2)c(C)c1=O (racemic) [5Dε] | 48% | 70% | – | –

Source: patent US20040058948A1, “Mappicine analogs, methods of inhibiting retroviral reverse transcriptase and methods of treating retroviruses” (priority 2002, published 2004)
